Experimental data as given in patent US20020103187A1, “Compositions and methods for treating superficial fungal infections” (priority 1999, published 2002).
≈ marks a conversion by molar mass, not a printed value.

Tests used:
C. tropicalis = experiment: Sensitivity of fungi to taurolidine, liquid medium; format: cell-based; conditions: Candida tropicalis
[1] = pH of saturated solution in deionized water; format: physicochemical
Sporotrichum schenkii = experiment: Sensitivity of fungi to taurolidine, solid medium; format: cell-based
Cryptococcus neoformans = experiment: Sensitivity of fungi to taurolidine, solid medium; format: cell-based
Trichophyton rubrum = experiment: Sensitivity of fungi to taurolidine, liquid medium; format: cell-based
C. spp. = experiment: Sensitivity of fungi to taurolidine, liquid medium; format: cell-based
[2] = systemic doses exceeding 40 g/day and cumulative doses up to and exceeding 300 g; cited from earlier work
C. albicans (Has. A) [3] = experiment: Sensitivity of fungi to taurolidine, liquid medium; format: cell-based; conditions: Candida albicans
[4] = Solubility in aqueous solutions and organic solvents; format: physicochemical
Mucor spp. (Lane) = experiment: Sensitivity of fungi to taurolidine, solid medium; format: cell-based
Mucor spp. (heavy inoc.) = experiment: Sensitivity of fungi to taurolidine, liquid medium; format: cell-based
Mucor spp. (light inoc.) = experiment: Sensitivity of fungi to taurolidine, liquid medium; format: cell-based
C. albicans (I) = experiment: Sensitivity of fungi to taurolidine, solid medium; format: cell-based; conditions: Candida albicans
C. albicans (Has. A) [5] = experiment: Sensitivity of fungi to taurolidine, solid medium; format: cell-based; conditions: Candida albicans
[6] = Stability in the solid state; format: physicochemical; conditions: stored at ambient conditions
[7] = system: Aspergillus fumigatus III; experiment: Sensitivity of fungi to taurolidine, solid medium; format: cell-based
C. albicans (Wilton) = experiment: Sensitivity of fungi to taurolidine, solid medium; format: cell-based; conditions: Candida albicans
Aspergillus fumigatus I = experiment: Sensitivity of fungi to taurolidine, solid medium; format: cell-based
C. albicans (Jones) [8] = experiment: Sensitivity of fungi to taurolidine, solid medium; format: cell-based; conditions: Candida albicans
Epidermophyton floccosum = experiment: Sensitivity of fungi to taurolidine, solid medium; format: cell-based
bacteria = experiment: Antibacterial activity; format: cell-based; conditions: antifungal activity stated approximately equivalent to it
C. albicans (Jones) [9] = experiment: Sensitivity of fungi to taurolidine, liquid medium; format: cell-based; conditions: Candida albicans
Rhizopus spp. = experiment: Sensitivity of fungi to taurolidine, solid medium; format: cell-based
[10] = Apparent partition coefficient between octanol and water; format: physicochemical; conditions: water buffered at pH 7.2
Candida albicans = experiment: Antifungal activity; format: cell-based; conditions: the exception in the text summary of Table 1
[11] = system: Trichophyton mentagrophytes; experiment: Sensitivity of fungi to taurolidine, solid medium; format: cell-based
Aspergillus fumigatus = experiment: Sensitivity of fungi to taurolidine, liquid medium; format: cell-based

**Q.** Which MIC (C. tropicalis) does the source give for `O=S1(=O)CCN(CN2CCS(=O)(=O)NC2)CN1` [Taurolidine, 4,4′-methylenebis(tetrahydro-1,2,4-thiadiazine)1,1,1′,1′,-tetraoxide] here?
**A.** 300 µg/mL (≈ 1050 µM)

**Q.** And the “pH of a saturated solution” value [1]?
**A.** 7.4

**Q.** What about the MIC (Sporotrichum schenkii) of the same molecule?
**A.** 625 µg/mL (≈ 2200 µM)

**Q.** What about the MIC (Cryptococcus neoformans) of the same molecule?
**A.** < 300 µg/mL

**Q.** And the MIC (Trichophyton rubrum)?
**A.** 300 µg/mL (≈ 1050 µM)

**Q.** And the MIC (C. spp.)?
**A.** 625 µg/mL (≈ 2200 µM)

**Q.** What about the safety and tolerability [2] of the same molecule?
**A.** safe and well tolerated

**Q.** And the MIC (C. albicans (Has. A) [3])?
**A.** 2500 µg/mL (≈ 8790 µM)

**Q.** And the solubility ([4]; CHCl3)?
**A.** insoluble

**Q.** And the solubility ([4]; Dilute HCl)?
**A.** soluble

**Q.** And the solubility ([4]; Dilute NaOH)?
**A.** soluble

**Q.** And the solubility ([4]; EtOH)?
**A.** sparingly soluble

**Q.** And the solubility ([4]; Water, 20° C.)?
**A.** 1% at 20 °C

**Q.** What about the MIC (Mucor spp. (Lane)) of the same molecule?
**A.** 625 µg/mL (≈ 2200 µM)

**Q.** And the MIC (Mucor spp. (heavy inoc.))?
**A.** 625 µg/mL (≈ 2200 µM)

**Q.** And the MIC (Mucor spp. (light inoc.))?
**A.** 625 µg/mL (≈ 2200 µM)

**Q.** And the MIC (C. albicans (I))?
**A.** > 5000 µg/mL

**Q.** And the MIC (C. albicans (Has. A) [5])?
**A.** > 5000 µg/mL

**Q.** And the “stability in the solid state” value [6]?
**A.** acceptable stability

**Q.** And the MIC [7]?
**A.** 625 µg/mL (≈ 2200 µM)

**Q.** What about the MIC (C. albicans (Wilton)) of the same molecule?
**A.** > 5000 µg/mL

**Q.** And the MIC (Aspergillus fumigatus I)?
**A.** 625 µg/mL (≈ 2200 µM)

**Q.** And the MIC (C. albicans (Jones) [8])?
**A.** > 5000 µg/mL

**Q.** And the MIC (Epidermophyton floccosum)?
**A.** < 300 µg/mL

**Q.** What about the antibacterial activity (bacteria) of the same molecule?
**A.** 0.3 to 0.6 mg/mL

**Q.** And the MIC (C. albicans (Jones) [9])?
**A.** 5000 µg/mL (≈ 17600 µM)

**Q.** And the MIC (Rhizopus spp.)?
**A.** 625 µg/mL (≈ 2200 µM)

**Q.** And the “apparent partition coefficient between octanol and water” value [10]?
**A.** approximately 0.13

**Q.** And the antifungal activity (Candida albicans)?
**A.** > 5 mg/mL

**Q.** What about the MIC [11] of the same molecule?
**A.** < 300 µg/mL

**Q.** What about the MIC (Aspergillus fumigatus) of the same molecule?
**A.** 300 µg/mL (≈ 1050 µM)
